Measured values from patent US20130202659A1, “POLYMER-AGENT CONJUGATES, PARTICLES, COMPOSITIONS, AND RELATED METHODS OF USE” (CERULEAN PHARMA INC., priority 2012, published 2013).

What was measured:
B 16.F10 cells = assay: CellTiter-Glo Luminescent Cell Viability Assay, cytotoxic effect of nanoparticles; type: cell-based, mouse; conditions: 24, 48 and 72 hours
Protocol: B 16.F10 cells, grown to 85-90% confluency in 150 cm^2 flasks (passage<30), were resuspended in media (MEM-alpha, 10% HI-FBS, lx antibiotic-antimycotic) and added to 96-well opaque-clear bottom plates at a concentration of 1500 cells/well in 200 μL/well. The cells were incubated at 37° C. with 5% CO2 for 24 hours. The following day, serial dilutions of 2× concentrated particles and 2× concentrated free drug were made in 12-well reservoirs with media to specified concentrations. The media in the plates was replaced with 100 μL of fresh media and 100 μL of the corresponding serially diluted drug. Three sets of plates were prepared with duplicate treatments. Following 24, 48 and 72 hours of incubation at 37° C. with 5% CO2, the media in the plates was replaced with 100 μL of fresh media and 100 μL of CTG solution, and then incubated for 5 minutes on a plate shaker at room temperature set to 450 rpm and allowed to rest for 15 minutes. Viable cells were measured by luminescence using a microtiter plate reader. The data was plotted as % viability vs. concentration and standardized to untreated cells.

B16.F10 tumor [1] = assay: Efficacy in B16.F10 murine melanoma model (Example 43); type: in vivo, mouse
Protocol: 7) PEGylated docetaxel-5050 PLGA-β-acetyl nanoparticles (mPEG(5k)-PLGA at 40 wt %) administered at a dose of 15 mg/kg. Refer to table for detailed description of formulations.
Tumor volume was calculated with the following equation: (width×width×length)/2 mm^3.

murine melanoma tumor = assay: Efficacy and survival in aggressive murine melanoma model at MTD (Example 92); type: in vivo, mouse; conditions: dosed at respective MTD
Protocol: Thus, the sustained release properties of a particle according to exemplary particle 1 supports less frequent dosing of patients. Methods: Tumor-bearing mice were injected with a particle according to exemplary particle 1 or docetaxel at their respective MTD. See, for example, FIGS. 6a and 6b.

HCT-116 tumor = assay: In vivo efficacy, HCT-116 colon xenograft model (Example 44); parameters: species or system human (in CD-1 nude mice); conditions: 30 mg/kg IV weekly×2
Protocol: HCT-116 cells were grown in culture to confluency in McCoy's 5a medium containing 10% FBS and 1% penicillin/streptomycin and then resuspended in McCoy's 5a (passage 4). This suspension of HCT-116 cells (density=3.7×10^6 cells/mL) was implanted subcutaneously above the right hind leg of male CD-1 nude mice on day 1.

[2] = Tolerability in mouse melanoma model B16.F10 (Example 61); type: in vivo; conditions: 15 mg/kg 1/wk×3
Protocol: The treatments were administered IV into the tail vein at a dose volume of 10 ml/kg, beginning on post-implantation day 5, when the mean tumor volume was ca. 60 mm^3. Animals were monitored for any morbidity and adverse effects three times a week. In addition, body weight and tumor volume were also measured three times a week.

[3] = mouse, in vivo, 17 day post-implantation
Protocol: The stock solution was diluted further with PBS to 0.6, 1.5, 3, 4.5 and 6 mg/mL (for a corresponding dose of 6, 15, 30, 45 and 60 mg/kg) so that all the groups received the same amount of ethanol, polysorbate 80, water and PBS. […] 5) PEGylated O-acetyl-5050-PLGA nanoparticle vehicle at the highest concentration of 6 mg/mL.
The treatments were administered IV into the tail vein at a dose volume of 10 mL/kg, beginning on post-implantation Day 5, when the mean tumor volume was 55 mm^3. The treatments were administered 4 times, on Days 5, 8, 12 and 15 (biweekly×4 injections). On Day 17 post-tumor implantation, mice were euthanized by CO2 inhalation according to the procedure guideline. Blood was collected by cardiac puncture and put into ethylenediaminetetraacetic acid (EDTA) or serum separation blood collection tubes. Whole blood was analyzed on the day of collection for CBC analyses. After the blood clotted and was centrifuged, serum was frozen immediately on dry ice for serum chemistry analyses.
Tolerability was determined by changes in body weight, expressed as a percent of the initial body weight on post-implantation Day 5. […] Other indices of toxicity, complete blood count (CBC) and serum chemistry were determined from blood collected from animals that were euthanized on Day 17 by CO2 inhalation, according to the procedure guideline.

MDA-MB-435 tumor = assay: MDA-MB-435 breast xenograft model, delayed treatment (Example 93); conditions: mouse, in vivo
Text: See, for example, FIG. 7.

[4] = Tolerability in normal male C57BL/6 non-tumor-bearing mice (Example 47); type: in vivo, mouse
Protocol: Treatments were administered intravenously on a q7d×2 schedule, i.e., two treatments seven days apart (the first treatment was on Day one). The study ended on Day 14, six days after the 2nd treatment. Blood was collected for complete blood count (CBC) and serum chemistry. Leg muscles were collected so that nerve degeneration could be assessed from the sciatic nerve.

[5] = weekly schedule, 3 injections; cited from earlier work
[6] = Tolerability in H1299 tumor-bearing mice (Example 60); type: in vivo, mouse
Protocol: (§1) The treatments were administered IV into the tail vein at a dose volume of 10 and 20 mL/kg for 30 and 60 mg/kg respectively, beginning on post-implantation day 30 when the mean tumor volume was ca. 170 mm^3 (small tumor group), and on day 37 when the mean tumor volume was ca. 440 mm^3 (large tumor group). Body weight and tumor volume were measured for three times a week during the dosing period and twice a week thereafter. In addition, animals were also monitored for any morbidity and adverse effects for three times a week during the dosing period and twice a week thereafter.
Tumor volume was calculated with (width×width×length)/2 mm^3 formula. Efficacy was determined by tumor growth inhibition (TGI), tumor growth delay (TGD) and survival. Tumor growth inhibition (TGI) is represented as % and calculated as (1−(treated tumor volume/control tumor volume))×100 when the control group mean tumor volume reached ≧1000 mm^3. Tumor growth delay (TGD) is calculated by subtracting the day when the vehicle treated group reached the maximum tumor size 1000 mm^3 from the day when the treatment group tumor size reached 1000 mm^3.

[7] = Body weight changes in A2780 tumor-bearing mice (Example 42); type: in vivo, mouse; conditions: Day 36
Protocol: The stock solution was diluted further with PBS to 1.5 mg/mL (for a dose of 15 mg/kg at 10 mL/kg and 30 mg/kg at 20 mL/kg). This formulation was made within 30 minutes of administration to mice.
The treatments were administered 2 times, on Day 8 and Day 15 (weekly×2 injections) for n=8 mice per group. […] On Day 50, the study was ended for all remaining mice. When removed from the study, mice were euthanized by CO2 inhalation.

SK-OV-3 tumor = assay: In vivo efficacy, SK-OV-3 ovarian human xenograft model (Example 45); parameters: species or system human (in CD-1 nude mice)
Protocol: SK-OV-3 cells were grown in culture to confluency in RPMI medium containing 10% FBS and 1% penicillin/streptomycin and then resuspended in RPMI (passage 4) for implantation into mice. This suspension of SK-OV-3 cells (density=30×10^6 cells/mL) was implanted into the mammary gland of female CD-1 nude mice on Day 1. […]

H1299 tumor = assay: Efficacy in non-small cell lung carcinoma model H1299 (Example 60); type: in vivo, nu/nu mice; conditions: large tumor group, 30 mg/kg
Protocol: H1299 cells were grown in culture to 85-90% confluency in RPMI medium supplemented with 10% fetal bovine serum (FBS), 1% glutamine and 1% penicillin/streptomycin. Cells were removed from the culture flask using 0.05% trypsin (passage=4), re-suspended in RPMI medium (density=50×10^6 cells/mL) and were implanted subcutaneously (5×10^6 cells in 100 μL RPMI medium/mouse) into the mammary fat pad area of male nu/nu mice on day 1.
as §1
Tumor volume was calculated with (width×width×length)/2 mm^3 formula. Efficacy was determined by tumor growth inhibition (TGI), tumor growth delay (TGD) and survival. Tumor growth inhibition (TGI) is represented as % and calculated as (1−(treated tumor volume/control tumor volume))×100 when the control group mean tumor volume reached ≧1000 mm^3. […]

[8] = Tolerability in ADR-RES tumor-bearing mice (Example 59); type: in vivo, mouse
Protocol: The treatments were administered IV into the tail vein at a dose volume of 10 and 20 mL/kg for 30 and 60 mg/kg respectively, beginning on post-implantation day 47, when the mean tumor volume was ca. 150 mm^3. Body weight and tumor volume were measured for three times a week during the dosing period and twice a week thereafter. In addition, animals were also monitored for any morbidity and adverse effects for three times a week during the dosing period and twice a week thereafter.
Tumor volume was calculated with (width×width×length)/2 mm^3 formula. […] Tumor growth inhibition (TGI) is represented as % and calculated as (1−(treated tumor volume/control tumor volume))×100 when the control group mean tumor volume reached ≧1000 mm^3. Tumor growth delay (TGD) is calculated by subtracting the day when the vehicle treated group reached the maximum tumor size 1000 mm^3 from the day when the treatment group tumor size reached 1000 mm^3.

B16.F10 tumor [9] = assay: In vivo efficacy, B16.F10 mouse model of melanoma (Example 39)
Protocol: The treatments were administered on days 5, 8, and 12 (biweekly×3 injections) post tumor implantation. Health status of the animals was monitored and tumor size was measured three times a week. […] Tumors from each animal were dissected and tumor size was measured. Tumor volume was calculated using the formula: (width×width×length)/2 mm^3.

[10] = large tumor group, 30 mg/kg 1/wk×2
[11] = large tumor group, 60 mg/kg 1/wk×2
[12] = small tumor group, 30 mg/kg 1/wk×2
[13] = small tumor group, 60 mg/kg 1/wk×2

For docetaxel-5050 PLGA-O-acetyl, the “growth inhibition of B 16.F10 cells” value (B 16.F10 cells) was “inhibited the growth of B 16.F10 cells in a dose and time dependent manner”.
With “bis(docetaxel) glutamate-5050 PLGA-O-acetyl” the “growth inhibition of B 16.F10 cells” value (B 16.F10 cells) was “inhibited the growth of B 16.F10 cells in a dose and time dependent manner”.
With OC[C@H]1O[C@@](CO)(O[C@H]2O[C@H](CO)[C@@H](O)[C@H](O)[C@H]2O)[C@@H](O)[C@@H]1O [Sucrose, sucrose] the “Recon. Solution Appearance” value (nanoparticles A, sucrose cycle, lyoprotectant 100 mg/mL, polymer 31.25 mg/mL, 3.2:1) was “cloudy”.
In the case of CC(=O)O[C@@]12CO[C@@H]1C[C@H](O)[C@@]1(C)C(=O)[C@H](O)C3=C(C)[C@@H](OC(=O)[C@H](O)[C@@H](NC(=O)OC(C)(C)C)c4ccccc4)C[C@@](O)([C@@H](OC(=O)c4ccccc4)[C@H]21)C3(C)C [Free docetaxel, docetaxel], the “tumor growth delay (TGD)” value (B16.F10 tumor [1]; q3dq4dx3, 15 mg/kg) is reported as 12 days, the “tumor growth delay (TGD)” value (B16.F10 tumor [1]; q7dx3, 30 mg/kg) is reported as 17 days and the “day tumor volume end point reached” value (B16.F10 tumor [1]; q14dx2, 60 mg/kg) is reported as 29 days. The “tumor growth inhibition (TGI)” value (B16.F10 tumor [1]; q14dx2, 60 mg/kg) was 71%, the “tumor growth with every other week dosing” value (murine melanoma tumor) was “not sufficient to suppress tumor growth” and the “tumor growth inhibition (TGI)” value (HCT-116 tumor) was 88%. For the same compound, the TGD (HCT-116 tumor; end point 1000 mm^3) was 22 days, the “Maximum body weight loss” value [2] was 2% and the “dose up to which no serum chemistry parameter was affected” value [3] was 30 mg/kg. The “effect on tumors allowed to grow to 500 mm^3 (delayed treatment)” value (MDA-MB-435 tumor) was “unable to suppress tumor growth”, the Ataxia ([4]; 30 mg/kg q7d×2) was 0% and the Lymphocyte mean ([4]; 30 mg/kg q7d×2, Day 14) was 4350 cells/A. The Neutrophil mean ([4]; 30 mg/kg q7d×2, Day 14) was 556 cells/A, the Ataxia ([4]; 45 mg/kg q7d×2) was 20% and the Lymphocyte mean ([4]; 45 mg/kg q7d×2, Day 14) was 6780 cells/A. The Neutrophil mean ([4]; 45 mg/kg q7d×2, Day 14) was 752 cells/A, the Ataxia ([4]; 60 mg/kg q7d×2) was 100% and the “weight lost after the second treatment, by the end of the study” value ([4]; 60 mg/kg q7d×2) was 19%. For the same compound, the Lymphocyte mean ([4]; 60 mg/kg q7d×2, Day 14) was 5590 cells/A, the Neutrophil mean ([4]; 60 mg/kg q7d×2, Day 14) was 470 cells/A and the “effect on serum chemistry” value ([4]; doses up to 60 mg/kg) was “did not affect any serum chemistry parameter”. For the same compound, the “known maximum tolerated dose (MTD)” value [5] was 30 mg/kg, the “Maximum body weight loss” value [6, 10] was 19% and the hind limb paralysis [6, 10] was “did not cause any significant body weight loss or hind limb paralysis”. The “Maximum body weight loss” value [6, 11] was “significant body weight loss”, the hind limb paralysis [6, 11] was “severe hind limb paralysis” and the “Maximum body weight loss” value [6, 12] was 18%. For the same compound, the hind limb paralysis [6, 12] was “did not cause any significant body weight loss or hind limb paralysis”, the “Maximum body weight loss” value [6, 13] was “significant body weight loss” and the hind limb paralysis [6, 13] was “severe hind limb paralysis”. For the same compound, the “body weight, % of initial” value ([7]; 15 mg/kg) was 113±11%, the “body weight, % of initial” value ([7]; 30 mg/kg) was 105±9% and the “tumor growth delay (TGD)” value (SK-OV-3 tumor; 15 mg/kg weekly×2) was 18 days. For the same compound, the “tumor growth delay (TGD)” value (SK-OV-3 tumor; 30 mg/kg weekly×2) was 42 days, the tumor shrinkage (H1299 tumor) was “no tumor shrinkage” and the “Maximum body weight loss” value ([8]; 30 mg/kg 1/biwk×3) was 9%. For the same compound, the hind limb paralysis ([8]; 30 mg/kg 1/biwk×3) was “did not cause any significant body weight loss (<10%) or hind limb paralysis”, the “Maximum body weight loss” value ([8]; 30 mg/kg 1/wk×2) was 6% and the hind limb paralysis ([8]; 30 mg/kg 1/wk×2) was “did not cause any significant body weight loss (<10%) or hind limb paralysis”. For the same compound, the “Maximum body weight loss” value ([8]; 60 mg/kg 1/biwk×3) was 21%, the hind limb paralysis ([8]; 60 mg/kg 1/biwk×3) was “severe hind limb paralysis” and the “Maximum body weight loss” value ([8]; 60 mg/kg 1/wk×2) was 23%. The hind limb paralysis ([8]; 60 mg/kg 1/wk×2) was “hind limb paralysis after the 2nd injection followed by recovery”.
With OC[C@H]1O[C@@H]2O[C@H]3[C@H](O)[C@@H](O)[C@@H](O[C@H]4[C@H](O)[C@@H](O)[C@@H](O[C@H]5[C@H](O)[C@@H](O)[C@@H](O[C@H]6[C@H](O)[C@@H](O)[C@@H](O[C@H]7[C@H](O)[C@@H](O)[C@@H](O[C@H]8[C@H](O)[C@@H](O)[C@@H](O[C@H]1[C@H](O)[C@H]2O)O[C@@H]8CO)O[C@@H]7CO)O[C@@H]6CO)O[C@@H]5CO)O[C@@H]4CO)O[C@@H]3CO [β-CD, β-cyclodextrin] the “solubility of the cyclodextrin in the formulation” value (40 mg/mL) was “Beta-CD is not soluble at this”.
With paclitaxel-5050 PLGA-O-acetyl the “growth inhibition of B 16.F10 cells” value (B 16.F10 cells) was “inhibited the growth of B 16.F10 cells in a dose and time dependent manner”.
With doxorubicin 5050 PLGA amide the “growth inhibition of B 16.F10 cells” value (B 16.F10 cells) was “inhibited the growth of B 16.F10 cells in a dose and time dependent manner”.
In the case of CC(=O)O[C@H]1C(=O)[C@@]2(C)[C@H]([C@H](OC(=O)c3ccccc3)[C@]3(O)C[C@H](OC(=O)[C@H](O)[C@@H](NC(=O)c4ccccc4)c4ccccc4)C(C)=C1C3(C)C)[C@]1(OC(C)=O)CO[C@@H]1C[C@@H]2O [Free paclitaxel, paclitaxel], the “Day-17 TGI” value (B16.F10 tumor [9]; 6 mg/kg IV days 5, 8, 12) is reported as 57% and the “Day-17 TGI” value (B16.F10 tumor [9]; 15 mg/kg IV days 5, 8, 12) is reported as 83%.
